One data set deals with Mycobacterium 607. In words: MIC, agar dilution on nutrient agar. As to conditions: acetylated Josamycins as Josamycin equivalent, read-out: Minimum Inhibitory Concentration (MIC). Type of data set: cell-based. As for the experimental part: (§1) Experimental procedure: Minimum inhibitory concentrations (MIC) were determined as to Josamycin, monoacetyl-josamycin-1, monoacetyl-josamycin-2and diacetyl-josamycin, according to usual agar dilution method on nutrient agar.
Background: In agar dilution, organisms are placed on agar that contains the substance at set levels.

Data set [1] has as its system Staphylococcus aureus FDA 209P Smith. Kind of data set: MIC, agar dilution on nutrient agar. It is filed as cell-based. As to conditions: FDA209P, acetylated Josamycins as Josamycin equivalent, read-out: Minimum Inhibitory Concentration (MIC). As for the experimental part: as §1
In data set [2] the test system is Staphylococcus aureus PC, SM, TC, EM, SA resistant. Kind of data set: MIC, agar dilution on nutrient agar. As to conditions: acetylated Josamycins as Josamycin equivalent, read-out: Minimum Inhibitory Concentration (MIC). It is filed as cell-based. As to the method: as §1
The test system of data set [3] is Staphylococcus aureus FDA 209P. In words: MIC, agar dilution on nutrient agar. It is filed as cell-based. As to conditions: FDA209P, acetylated Josamycins as Josamycin equivalent, read-out: Minimum Inhibitory Concentration (MIC). As for the experimental part: as §1
For data set [4], the system named is Staphylococcus aureus PC, CP, TC, SA resistant. In words: MIC, agar dilution on nutrient agar. As to conditions: acetylated Josamycins as Josamycin equivalent, read-out: Minimum Inhibitory Concentration (MIC). It is filed as cell-based. As to the method: as §1
Another data set has as its system Escherichia coli PCI 602. In words: MIC, agar dilution on nutrient agar. As to conditions: PCI602, acetylated Josamycins as Josamycin equivalent, read-out: Minimum Inhibitory Concentration (MIC). Type of data set: cell-based. As to the method: as §1
In the next data set the test system is Salmonella typhi H 901W. Kind of data set: MIC, agar dilution on nutrient agar. It is filed as cell-based. As to conditions: Salmonella enterica, read-out: Minimum Inhibitory Concentration (MIC). As for the experimental part:
as §1

Data set [5] relates to Bacillus subtilis ATCC 6635. In words: MIC, agar dilution on nutrient agar. It is filed as cell-based. As to conditions: ATCC6635, acetylated Josamycins as Josamycin equivalent, read-out: Minimum Inhibitory Concentration (MIC). As for the experimental part: as §1
Data set [6] concerns Shigella flexneri 2a 1675. Kind of data set: MIC, agar dilution on nutrient agar. It is filed as cell-based. As to conditions: 2A1675, acetylated Josamycins as Josamycin equivalent, read-out: Minimum Inhibitory Concentration (MIC). As for the experimental part:
as §1

A further data set in a line: pKa' measurement. It is filed as physicochemical. As to conditions: 40% aqueous methanol. The text has this:
4. pKa' less than 6 (measured in 40% aqueous methanol)
4. pKa 7.03 (measured in 40% aqueous methanol)

Data set [7] relates to Staphylococcus aureus No. 226 strain. Kind of data set: Protection of mice from subcutaneous Staphylococcal infection. It is filed as in vivo. As to conditions: 48 hours, control 88.2. As for the experimental part: Experimental procedure: Groups of 5 mice were inoculated subcutaneously in the back with 10^8 cells (in 0.1 ml volume) of Staphylococcus aureus No. 226 strain. Immediately after the infection, Josamycin or monoacetyl-josamycin-2 was administered orally. To the control group, no medicament was administered. After 48 hours, the animals were killed. The skin of the back of each mouse was cut open, and the size of subcutaneous abscess was measured.

For data set [8] the following is noted: Josamycin base, as described; cited from earlier work.
The subject of data set [9] is Staphylococcus aureus Smith. Kind of data set: Protection of mice from systemic staphylococcal infection. It is filed as in vivo. As to conditions: 5 mice, control 0 of 10. The text has this: Experimental procedure: Group of 5 mice were inoculated intraperitoneally with 1000 MLD (containing 5% of mucin added) of Staphylococcus aureus Smith. Immediately after the infection, a single dose of each antibiotic was given orally. The survival of mice after 7 days was observed. The group for control (10 mice) was given no antibiotic.

For data set [10] the following is noted: titrated in aqueous methanol; base form; cited from earlier work.
For data set [11], the system named is staphylococci resistant to streptothricin, telomycin, streptomycin, chloramphenicol, or penicillin. As to conditions: cited from earlier work.
[12] abbreviates: 200 mg/kg oral (as Josamycin equivalent).
Where [13] appears, read: 50 mg/kg oral single dose (as Josamycin equivalent).
[14] abbreviates: 150 mg/kg oral single dose (as Josamycin equivalent).
[15] abbreviates: 500 mg/kg oral single dose (as Josamycin equivalent).

The text below walks through data of US3959252A, “Alkamoyl-josamycins” (Yamanouchi Pharmaceutical Co., Ltd., priority 1968, dated 1976).

In general, pKa refers to the pH at which an ionisable group is half protonated.

Like-named read-outs stand apart in the source and are kept apart here.

Turning to `COC1C(OC(C)=O)CC(=O)OC(C)C/C=C/C=C/C(O)C(C)CC(CC=O)C1OC1OC(C)C(OC2CC(C)(O)C(OC(=O)CC(C)C)C(C)O2)C(N(C)C)C1OC(C)=O` (centres unmarked) [Monoacetyl-josamycin-1, 2'-acetyl-josamycin], the “Solubility (easily soluble solvents)” value in the data set “Solubility” was “easily soluble in acetone, methylethylketone, chloroform, ethyl acetate and benzene”. Further, the “Solubility (hardly soluble solvents)” value in “Solubility” was “hardly soluble in water, petroleum ether and n-hexane”. In addition, the “Solubility (soluble solvents)” value in the data set “Solubility” was “soluble in methanol and ethanol”. The MIC with Mycobacterium 607 was 3.1 µg/mL; in [1], 0.39 µg/mL; in [2], greater than 100 µg/mL; in [3], 0.39 µg/mL; in [4], 0.78 µg/mL; in the data set on Escherichia coli PCI 602, greater than 100 µg/mL. The results for the MIC (with Salmonella typhi H 901W; in data set [5]; in [6]) were greater than 100 µg/mL, 0.39 µg/mL and 50 µg/mL, respectively. Besides, in “pKa' measurement” (read-out: pKa'), the pKa was less than 6.
With `COC1C(OC(C)=O)CC(=O)OC(C)C/C=C/C=C/C(OC(C)=O)C(C)CC(CC=O)C1OC1OC(C)C(OC2CC(C)(O)C(OC(=O)CC(C)C)C(C)O2)C(N(C)C)C1OC(C)=O` (centres unmarked) [Diacetyl-josamycin, diacetyl-josamycin], the MIC was 3.1 µg/mL in the data set on Mycobacterium 607; 0.39 µg/mL in data set [1]; greater than 100 µg/mL in [2]; 0.39 µg/mL in data set [3]; 0.78 µg/mL in data set [4]; greater than 100 µg/mL in the data set on Escherichia coli PCI 602. The MIC is greater than 100 µg/mL in the data set with Salmonella typhi H 901W, 0.39 µg/mL in [5] and 50 µg/mL in [6]. In the data set “pKa' measurement”, the pKa is less than 6.
Consider `CO[C@@H]1[C@@H](O[C@@H]2O[C@H](C)[C@@H](O[C@H]3C[C@@](C)(O)[C@@H](OC(=O)CC(C)C)[C@H](C)O3)[C@H](N(C)C)[C@H]2O)[C@@H](CC=O)C[C@@H](C)[C@@H](O)/C=C/C=C/C[C@@H](C)OC(=O)C[C@H]1OC(C)=O` [Josamycin], for which the MIC with Mycobacterium 607 was 3.1 µg/mL; in [1], 0.39 µg/mL; in [2], greater than 100 µg/mL; in [3] it was 0.39 µg/mL; in data set [4] it was 0.78 µg/mL; in the data set on Escherichia coli PCI 602 it was greater than 100 µg/mL. Further, the values for the MIC (with Salmonella typhi H 901W; in data set [5]; in [6]) were greater than 100 µg/mL, 0.39 µg/mL and 50 µg/mL, respectively. The Size of abscess was determined as 21.2 mm^2 in data set [7] (50 mg/kg oral) and 4.19 mm^2 in data set [7] (setting [12]). Besides, the “Solubility (easily soluble solvents)” value in [8] was “easily soluble in acidic water, methanol, ethanol, chloroform, ethyl acetate, and acetone”. Also, the “Solubility (slightly soluble solvents)” value in data set [8] was “slightly soluble in water, petroleum ether, ligroin, and n-hexane”. Also, the “Solubility (soluble solvents)” value in [8] is “soluble in benzene, ether and carbon tetrachloride”. Also, the “Survival on 7th day (number of mice)” value in [9] (setting [13]) is listed as 0; in [9] (setting [14]), 2; in data set [9] (setting [15]) it was 5. In addition, in [10], the “pKa'” value is on record as 7.1. In data set [11], the “Inhibition of growth of resistant staphylococci” value is reported as “inhibits the growth”.
Take `COC1C(OC(C)=O)CC(=O)OC(C)C/C=C/C=C/C(OC(C)=O)C(C)CC(CC=O)C1OC1OC(C)C(OC2CC(C)(O)C(OC(=O)CC(C)C)C(C)O2)C(N(C)C)C1O` (centres unmarked) [Monoacetyl-josamycin-2, monoacetyl-josamycin-2]: the “Solubility (easily soluble solvents)” value in “Solubility” was “easily soluble in acetone, chloroform, methanol, ethyl acetate and ethylether”. For the same compound, in “Solubility”, the “Solubility (hardly soluble solvents)” value is “hardly soluble in water, petroleum ether and n-hexane”. In addition, the “Solubility (soluble solvents)” value in the data set “Solubility” was “soluble in carbon tetrachloride”. In addition, the MIC is 3.1 µg/mL with Mycobacterium 607; 0.39 µg/mL in [1]; greater than 100 µg/mL in [2]; 0.39 µg/mL in data set [3]; 0.78 µg/mL in data set [4]; greater than 100 µg/mL with Escherichia coli PCI 602. Also, the figures for the MIC (with Salmonella typhi H 901W; in data set [5]; in data set [6]) were greater than 100 µg/mL, 0.39 µg/mL and 50 µg/mL, respectively. For the same compound, the Size of abscess in data set [7] (setting [12]) stood at 0.64 mm^2. Besides, the pKa in the data set “pKa' measurement” (read-out: pKa') worked out at 7.03. In addition, the “Survival on 7th day (number of mice)” value in [9] (setting [13]) is given as 0; in [9] (setting [14]), 3; in data set [9] (setting [15]), 5.
